In US11524051B2, “Methods of treating fungal infections” (United States of America as represented by the Secretary of …, priority 2017, dated 2022):
Square brackets hold non-standard residues; d marks the D form. Ends that are not written are not given here. Peptide text beside a SMILES is read from it.

Tests used:
human red blood cells = test: Hemolysis assay; type: cell-based; conditions: 1 hour at 37° C., versus untreated controls
Protocol: The hemolytic activity of BmKn2, dBmKn2, Kn2-7, dKn2-7, and melittin was assessed using human red blood cells (RBCs). The RBCs were prepared from human whole blood (BioreclamationIVT, Westbury, N.Y., USA) according to a previous report (Evans et al, J. Vis. Exp. (73), 50166, doi:10.3791/50166 (2013)). In brief, human whole blood was centrifuged, and the RBCs were washed with PBS 3-4 times and then diluted 1:20 of the original volume in PBS. Peptides at various concentrations from 0-400 μg/mL in PBS were mixed with an equal volume of the diluted RBCs in a 96-well microtiter plate and allowed to incubate for 1 hour at 37° C. The plate was then centrifuged at 500 g for 5 minutes and 100 μL of the supernatant was transferred to a 96-well, transparent, flat-bottomed plate. Sample absorbances were read at 490 nm using a BioTek Synergy HT plate reader (BioTek, Winooski, Vt.). PBS was used as a negative control (blank), and 1% Triton X-100 was used as a positive control for 100% hemolysis. The percent hemolysis for the unknown samples was calculated according to the following equation: […]

[1] = Stability of peptides in human serum (LC-MS); type: in vitro ADME; conditions: 37° C.; for remaining at 24 h, 50 μg/mL: 25% human serum (v/v), pH 7, 25% human serum in RPMI 1640, after 24 hours, read-out: peptide remaining, percent of t0; for reduction of peptide amount: 100% culture medium (RPMI 1640), 24 hours, 50 μg/mL
Protocol: The stability of Kn2-7 and dKn2-7 (50 μg/mL) were studied in 25% human serum (v/v) (BioreclamationIVT, Westbury, N.Y., USA) in 1640 RPMI media (made with 165 mM MOPS, pH 7.0) or in 100% 1640 RPMI medium at 37° C. (H. Jenssen, S. I. Aspmo, Serum stability of peptides, Peptide-Based Drug Design (2008) 177-186.) At predetermined time points, 100 μL aliquots of each solution was removed and thoroughly mixed with 200 μL of 96% ethanol. This was incubated on ice for 15 minutes followed by centrifugation at 10,000 g for 5 minutes to pellet the precipitated proteins. The supernatant (200 μL) was carefully removed, spiked with peptide 1018 (VRLIVAVRIWRR; SEQ ID NO. 3) at 1 μg/mL as the internal standard, and stored at −20° C. prior to liquid chromatography-mass spectrometry (LC/MS) analysis. Peptide 1018 is a synthetic peptide derived from bactenecin, a bovine neutrophil host defense peptide. (Mansour, S. C., et al. (2015) J. Pept. Sci., 21, 323-329. doi: 10.1002/psc.2708. The peptide sequence was synthesized by Genemed Synthesis Inc. (San Antonio, Tex.).
Liquid chromatography was performed on a Shimadzu HPLC system (Shimadzu Scientific Instruments, Inc., Columbia, Md.). A 10-μl aliquot of the sample was injected into an Agilent ZORBAX Eclipse XDB 80 Å C18 (2.1×50 mm, 5 μm) column (Agilent, Santa Clara, Calif.) held at 40° C. Mass spectrometric analysis was carried out on an AB Sciex API 4000 mass spectrometer (AB Sciex, Framingham, Mass.) with an electrospray ionization (ESI) interface and triple quadrupole mass analyzer. The peak areas of Kn2-7 and dKn2-7 on the LC-MS chromatograms were standardized to the peak area for peptide 1018.

C. albicans = system: C. albicans; parameters: unit not given beside the values; conditions: compared with dKn2-7; cited from earlier work

For `CC[C@@H](C)[C@@H](NC(=O)[C@H](N)Cc1ccccc1)C(=O)NCC(=O)N[C@H](C)C(=O)N[C@@H](C(=O)N[C@H](C)C(=O)N[C@H](CCCNC(=N)N)C(=O)N[C@H](CC(C)C)C(=O)N[C@H](CC(C)C)C(=O)N[C@H](CO)C(=O)N[C@H](CCCCN)C(=O)N[C@@H](C(=O)N[C@H](Cc1ccccc1)C(=O)O)[C@H](C)CC)[C@H](C)CC` [dBmKn2] (H-[dF][dI]G[dA][dI][dA][dR][dL][dL][dS][dK][dI][dF]-OH; N-terminus and C-terminus assumed), which “concentration at which a significant increase in hemolysis starts” value (human red blood cells) is on record?
Its value is 100 µg/mL.

Which “concentration at which a significant increase in hemolysis starts” value (human red blood cells) does the source give for `CC[C@@H](C)[C@@H](NC(=O)[C@H](N)Cc1ccccc1)C(=O)N[C@H](CCCCN)C(=O)N[C@H](CCCNC(=N)N)C(=O)N[C@@H](C(=O)N[C@H](C)C(=O)N[C@H](CCCNC(=N)N)C(=O)N[C@H](CC(C)C)C(=O)N[C@H](CC(C)C)C(=O)N[C@H](CCCNC(=N)N)C(=O)N[C@H](CCCCN)C(=O)N[C@@H](C(=O)N[C@H](Cc1ccccc1)C(=O)O)[C@H](C)CC)[C@H](C)CC` [dKn2-7] (H-[dF][dI][dK][dR][dI][dA][dR][dL][dL][dR][dK][dI][dF]-OH; N-terminus and C-terminus assumed) here?
Its value is 200 µg/mL.

And the remaining at 24 h, 50 μg/mL [1]?
The remaining at 24 h, 50 μg/mL was about 43%.

And the “reduction of peptide amount” value [1]?
Its value is “about 20%”.

Which “concentration at which a significant increase in hemolysis starts” value (human red blood cells) does the source give for `CC[C@H](C)[C@H](NC(=O)CN)C(=O)NCC(=O)N[C@@H](C)C(=O)N[C@H](C(=O)N[C@@H](CC(C)C)C(=O)N[C@@H](CCCCN)C(=O)N[C@H](C(=O)N[C@@H](CC(C)C)C(=O)N[C@H](C(=O)N[C@H](C(=O)NCC(=O)N[C@@H](CC(C)C)C(=O)N1CCC[C@H]1C(=O)N[C@@H](C)C(=O)N[C@@H](CC(C)C)C(=O)N[C@H](C(=O)N[C@@H](CO)C(=O)N[C@@H](Cc1c[nH]c2ccccc12)C(=O)N[C@H](C(=O)N[C@@H](CCCCN)C(=O)N[C@@H](CCCNC(=N)N)C(=O)N[C@@H](CCCCN)C(=O)N[C@@H](CCCNC(=N)N)C(=O)N[C@@H](CCC(N)=O)C(=O)N[C@@H](CCC(N)=O)C(N)=O)[C@@H](C)CC)[C@@H](C)CC)[C@@H](C)O)[C@@H](C)O)C(C)C)C(C)C` [melittin, reference compound] here?
Its value is at least 3.125 µg/mL.

For “FIGAIARLLSKIF [BmKn2, FIGAIARLLSKIF (SEQ ID NO. 1)]”, which “concentration at which a significant increase in hemolysis starts” value (human red blood cells) is on record?
The value was 100 µg/mL.

What does the source list for “FIKRIARLLRKIF [Kn2-7, FIKRIARLLRKIF (SEQ ID NO. 2)]”?
concentration at which a significant increase in hemolysis starts (human red blood cells): 200 µg/mL; remaining at 24 h, 50 μg/mL [1]: ~9%; reduction of peptide amount [1]: about 20%

For LL-37: well-studied LL-37 peptide, which “MIC against C. albicans, times higher than dKn2-7” value (C. albicans) is on record?
The value was about 3 ×.
